Laboratory results published in publication PMC8989888, “Development of optimized drug-like small molecule inhibitors of the SARS-CoV-2 3CL protease for treatment of COVID-19” (Nature Communications, 2022).
Values joined by “and” are separate entries in the source; they are usually repeats but may differ in a detail not shown here. Identical values can stand only once. Like-named read-outs stand apart in the source and are kept apart here.

What was measured:
[1] = target: MMP 1 (Homo sapiens, UniProt P03956); assay: biochemical
[2] = target: Thrombin a (Homo sapiens, UniProt P00734); assay: biochemical
[3] = system: SARS coronavirus (strain: Urbani); assay: organism not typed; type: cell-based, SARS-CoV
[4] = target: Cathepsin K (Homo sapiens, UniProt P43235); assay: Protease selectivity panel: Cathepsin K
[5] = target: Elastase (Homo sapiens, UniProt P08246); assay: biochemical
[6] = target: TMPRSS2 (Homo sapiens, UniProt O15393); assay: biochemical
[7] = system: SARS-CoV-2; assay: microbe, parasite or virus in culture; type: cell-based; conditions: Severe acute respiratory syndrome coronavirus 2, read-out: SARS-CoV-2 EC50
[8] = system: Influenza A H1N1 (strain: California/07/2009); assay: microbe, parasite or virus in culture; type: cell-based
[9] = in vitro
[10] = target: T1, SARS-CoV-2 3CL protease (Severe acute respiratory syndrome coronavirus 2, UniProt P0DTD1); assay: biochemical
[11] = target: Furin (Homo sapiens, UniProt P09958); assay: biochemical
[12] = target: Cathepsin B (Homo sapiens, UniProt P07858); assay: biochemical
[13] = system: SARS-CoV-2; assay: microbe, parasite or virus in culture; type: cell-based; conditions: for EC50: Severe acute respiratory syndrome coronavirus 2, 24 h, read-out: SARS-CoV-2 Huh-7ACE2 EC50
[14] = target: SARS-CoV-2; assay: cell-based
[15] = target: Urokinase (Homo sapiens, UniProt P00749); assay: biochemical
[16] = system: Human coronavirus alpha (strain: 229E); assay: organism not typed; type: cell-based, HCoV-229E; conditions: Huh-7, read-out: EC50, human coronavirus 229E
[17] = target: Factor Xa (Homo sapiens, UniProt P00742); assay: biochemical
[18] = system: SARS-CoV-2; assay: microbe, parasite or virus in culture; conditions: Severe acute respiratory syndrome coronavirus 2, Caco-2, 72 h, read-out: SARS-CoV-2 Caco-2 EC90
[19] = target: Caspase 8 (Homo sapiens, UniProt Q14790); assay: biochemical
[20] = target: T2, Cathepsin L (Homo sapiens, UniProt P07711); assay: Protease selectivity panel: Cathepsin L; type: biochemical
T2 construct: Human liver; from tissue; host or cells: human liver

[21] = target: ACE1 (Homo sapiens, UniProt P12821); assay: biochemical
[22] = target: ACE2 (Homo sapiens, UniProt Q9BYF1); assay: biochemical
[23] = target: T1, SARS-CoV-2 3CL protease; assay: biochemical; remark: listed apart in the source
[24] = target: PLpro (Severe acute respiratory syndrome coronavirus 2, UniProt P0DTD1); assay: Protease selectivity panel: PLpro; type: biochemical; conditions: SARS-CoV-2 recombinant
[25] = target: Trypsin (Bos taurus, UniProt P00760); assay: Protease selectivity panel: Trypsin; type: biochemical; conditions: Bovine pancreas
[26] = system: SARS-CoV-2; assay: microbe, parasite or virus in culture; type: cell-based
[27] = system: Human coronavirus beta (strain: OC43); assay: organism not typed; type: cell-based, HCoV-OC43; conditions: Huh-7, read-out: EC50, human coronavirus OC43
[28] = target: Cathepsin S (Homo sapiens, UniProt P25774); assay: Protease selectivity panel: Cathepsin S
[29] = in vitro; conditions: CD-1, mouse, microsomes, pH 7.4
[30] = in vitro; conditions: human, plasma
[31] = target: T2, Cathepsin L; conditions: read-out: IC50 on human cathepsin L; cited from earlier work
[32] = physchem; conditions: aqueous buffer, kinetic from dmso stock
[33] = system: human chymotrypsin; assay: Chymotrypsin activity assay (Panc-1 cell lysate); type: biochemical
[34] = in vitro; conditions: CD-1, mouse, plasma
[35] = in vitro; conditions: human, microsomes, pH 7.4
[36] = Severe acute respiratory syndrome coronavirus 2, Vero C1008, read-out: SARS-CoV-2 Vero E6 EC50

T2 sequence (P07711 114-333): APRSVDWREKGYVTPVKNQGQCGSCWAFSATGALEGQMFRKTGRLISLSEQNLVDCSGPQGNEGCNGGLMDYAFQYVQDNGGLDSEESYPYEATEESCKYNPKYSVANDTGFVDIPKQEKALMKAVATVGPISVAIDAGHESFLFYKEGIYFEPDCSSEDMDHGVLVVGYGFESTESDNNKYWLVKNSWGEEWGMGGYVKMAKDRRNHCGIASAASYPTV
ACE1, sequence (P12821 30-1261): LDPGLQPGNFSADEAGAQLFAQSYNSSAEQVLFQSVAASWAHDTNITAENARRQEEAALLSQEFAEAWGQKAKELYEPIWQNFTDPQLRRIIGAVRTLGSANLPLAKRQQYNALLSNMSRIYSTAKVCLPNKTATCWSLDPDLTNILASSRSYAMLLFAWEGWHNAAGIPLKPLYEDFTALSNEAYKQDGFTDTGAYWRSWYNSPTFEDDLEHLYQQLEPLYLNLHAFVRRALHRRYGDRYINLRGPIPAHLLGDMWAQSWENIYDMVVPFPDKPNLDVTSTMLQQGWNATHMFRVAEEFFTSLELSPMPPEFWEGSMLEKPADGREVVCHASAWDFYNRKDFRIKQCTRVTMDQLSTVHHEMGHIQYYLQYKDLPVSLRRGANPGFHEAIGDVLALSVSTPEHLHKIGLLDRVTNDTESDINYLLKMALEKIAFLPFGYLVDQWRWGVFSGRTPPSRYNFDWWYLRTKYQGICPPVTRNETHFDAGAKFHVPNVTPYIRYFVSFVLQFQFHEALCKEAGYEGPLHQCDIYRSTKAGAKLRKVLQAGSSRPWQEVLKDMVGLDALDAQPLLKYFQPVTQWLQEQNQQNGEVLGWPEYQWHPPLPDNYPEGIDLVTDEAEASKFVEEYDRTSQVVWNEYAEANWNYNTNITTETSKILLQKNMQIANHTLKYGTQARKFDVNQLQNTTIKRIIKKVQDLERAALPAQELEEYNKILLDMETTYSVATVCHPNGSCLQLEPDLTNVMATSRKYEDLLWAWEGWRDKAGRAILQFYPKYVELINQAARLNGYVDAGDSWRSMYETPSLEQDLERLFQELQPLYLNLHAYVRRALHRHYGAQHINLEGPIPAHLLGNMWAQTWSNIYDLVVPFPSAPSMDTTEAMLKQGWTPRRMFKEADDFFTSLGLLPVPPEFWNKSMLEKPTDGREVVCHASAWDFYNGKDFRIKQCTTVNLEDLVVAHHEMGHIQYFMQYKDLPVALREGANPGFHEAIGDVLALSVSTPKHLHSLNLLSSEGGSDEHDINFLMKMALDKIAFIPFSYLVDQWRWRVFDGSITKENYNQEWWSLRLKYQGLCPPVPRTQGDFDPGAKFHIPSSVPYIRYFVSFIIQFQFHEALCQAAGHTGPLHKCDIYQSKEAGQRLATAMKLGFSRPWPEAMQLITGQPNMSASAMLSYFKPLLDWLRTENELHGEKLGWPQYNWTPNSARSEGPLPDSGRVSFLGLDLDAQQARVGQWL
Factor Xa, sequence (P00742 235-488): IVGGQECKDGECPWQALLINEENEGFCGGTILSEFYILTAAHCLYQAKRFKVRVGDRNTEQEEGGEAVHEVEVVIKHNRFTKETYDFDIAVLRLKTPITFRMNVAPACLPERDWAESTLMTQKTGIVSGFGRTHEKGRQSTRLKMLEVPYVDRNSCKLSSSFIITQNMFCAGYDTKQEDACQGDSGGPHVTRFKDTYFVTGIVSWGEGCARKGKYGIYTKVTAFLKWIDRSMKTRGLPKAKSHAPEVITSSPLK
Factor Xa, sequence (P00742 41-179): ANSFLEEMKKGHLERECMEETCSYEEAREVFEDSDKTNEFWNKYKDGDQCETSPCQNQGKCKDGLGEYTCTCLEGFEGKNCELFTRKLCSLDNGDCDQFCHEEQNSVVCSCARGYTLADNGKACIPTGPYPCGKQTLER
Caspase 8, sequence (Q14790 217-479): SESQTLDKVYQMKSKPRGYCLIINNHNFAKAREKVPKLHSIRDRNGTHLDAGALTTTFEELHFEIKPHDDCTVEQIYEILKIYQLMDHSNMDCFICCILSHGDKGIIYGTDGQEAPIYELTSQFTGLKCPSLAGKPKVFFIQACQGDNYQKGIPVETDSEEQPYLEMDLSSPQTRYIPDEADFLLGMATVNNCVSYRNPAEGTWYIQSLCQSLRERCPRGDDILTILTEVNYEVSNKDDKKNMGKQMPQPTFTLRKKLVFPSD
Cathepsin K, sequence (P43235 115-329): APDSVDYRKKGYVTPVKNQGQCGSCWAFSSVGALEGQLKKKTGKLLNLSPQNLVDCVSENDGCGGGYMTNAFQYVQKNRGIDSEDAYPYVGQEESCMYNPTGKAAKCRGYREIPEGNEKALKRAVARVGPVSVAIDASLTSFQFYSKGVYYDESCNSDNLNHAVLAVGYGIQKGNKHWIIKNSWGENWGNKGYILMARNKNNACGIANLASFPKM
Elastase, sequence (P08246 30-267): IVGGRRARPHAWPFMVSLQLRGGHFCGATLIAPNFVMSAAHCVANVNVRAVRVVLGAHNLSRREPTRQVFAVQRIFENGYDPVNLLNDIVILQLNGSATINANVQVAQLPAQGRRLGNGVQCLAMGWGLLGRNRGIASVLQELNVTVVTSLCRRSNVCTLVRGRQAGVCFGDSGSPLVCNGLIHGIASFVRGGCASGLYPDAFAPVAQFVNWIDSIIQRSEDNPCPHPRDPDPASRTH
TMPRSS2, sequence (O15393 106-492): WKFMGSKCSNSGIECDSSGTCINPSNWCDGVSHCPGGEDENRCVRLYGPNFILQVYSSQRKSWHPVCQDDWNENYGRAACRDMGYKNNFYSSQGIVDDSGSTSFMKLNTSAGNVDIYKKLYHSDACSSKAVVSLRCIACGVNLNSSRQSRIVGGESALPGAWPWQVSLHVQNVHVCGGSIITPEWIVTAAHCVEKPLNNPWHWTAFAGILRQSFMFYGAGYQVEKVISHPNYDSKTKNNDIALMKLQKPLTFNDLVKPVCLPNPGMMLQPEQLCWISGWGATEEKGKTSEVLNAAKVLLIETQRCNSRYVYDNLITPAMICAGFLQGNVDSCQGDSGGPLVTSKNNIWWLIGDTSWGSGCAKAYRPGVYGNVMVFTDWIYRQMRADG
Trypsin, sequence (P00760 24-246): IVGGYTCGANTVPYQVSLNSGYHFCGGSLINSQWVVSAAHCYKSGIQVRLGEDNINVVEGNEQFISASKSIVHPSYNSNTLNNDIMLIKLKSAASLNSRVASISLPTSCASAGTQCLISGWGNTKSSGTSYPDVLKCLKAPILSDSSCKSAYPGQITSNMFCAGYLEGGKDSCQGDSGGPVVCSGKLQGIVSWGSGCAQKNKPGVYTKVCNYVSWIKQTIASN
MMP 1, sequence (P03956 100-268): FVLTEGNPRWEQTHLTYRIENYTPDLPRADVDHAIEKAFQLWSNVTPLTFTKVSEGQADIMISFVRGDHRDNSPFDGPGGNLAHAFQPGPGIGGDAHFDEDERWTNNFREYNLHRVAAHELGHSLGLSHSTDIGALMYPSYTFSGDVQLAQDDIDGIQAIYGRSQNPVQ
ACE2, sequence (Q9BYF1 18-740): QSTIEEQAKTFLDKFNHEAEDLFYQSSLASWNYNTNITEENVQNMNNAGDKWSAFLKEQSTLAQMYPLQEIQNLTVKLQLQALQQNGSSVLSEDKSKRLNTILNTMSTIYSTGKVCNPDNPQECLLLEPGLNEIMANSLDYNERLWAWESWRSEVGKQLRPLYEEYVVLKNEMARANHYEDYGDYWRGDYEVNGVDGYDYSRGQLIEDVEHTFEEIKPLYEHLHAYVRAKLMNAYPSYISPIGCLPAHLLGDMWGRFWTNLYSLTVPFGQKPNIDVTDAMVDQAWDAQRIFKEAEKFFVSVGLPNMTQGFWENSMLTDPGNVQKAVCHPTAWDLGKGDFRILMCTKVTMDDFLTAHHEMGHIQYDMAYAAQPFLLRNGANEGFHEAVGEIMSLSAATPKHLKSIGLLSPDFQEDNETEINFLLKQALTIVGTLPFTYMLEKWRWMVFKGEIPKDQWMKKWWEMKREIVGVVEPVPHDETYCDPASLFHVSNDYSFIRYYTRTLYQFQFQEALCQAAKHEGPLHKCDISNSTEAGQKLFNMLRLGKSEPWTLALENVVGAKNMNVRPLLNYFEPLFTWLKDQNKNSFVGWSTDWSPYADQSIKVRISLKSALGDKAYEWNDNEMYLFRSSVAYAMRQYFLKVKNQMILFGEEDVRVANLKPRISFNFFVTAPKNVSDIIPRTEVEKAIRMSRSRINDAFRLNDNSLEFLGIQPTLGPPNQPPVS
Cathepsin S, sequence (P25774 115-331): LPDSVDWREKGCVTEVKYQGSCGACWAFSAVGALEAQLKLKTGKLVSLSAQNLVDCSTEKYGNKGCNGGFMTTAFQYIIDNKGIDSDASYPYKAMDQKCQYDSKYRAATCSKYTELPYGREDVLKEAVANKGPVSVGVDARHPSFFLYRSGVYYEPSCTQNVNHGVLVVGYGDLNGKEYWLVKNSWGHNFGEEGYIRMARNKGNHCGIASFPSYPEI
Furin, sequence (P09958 108-715): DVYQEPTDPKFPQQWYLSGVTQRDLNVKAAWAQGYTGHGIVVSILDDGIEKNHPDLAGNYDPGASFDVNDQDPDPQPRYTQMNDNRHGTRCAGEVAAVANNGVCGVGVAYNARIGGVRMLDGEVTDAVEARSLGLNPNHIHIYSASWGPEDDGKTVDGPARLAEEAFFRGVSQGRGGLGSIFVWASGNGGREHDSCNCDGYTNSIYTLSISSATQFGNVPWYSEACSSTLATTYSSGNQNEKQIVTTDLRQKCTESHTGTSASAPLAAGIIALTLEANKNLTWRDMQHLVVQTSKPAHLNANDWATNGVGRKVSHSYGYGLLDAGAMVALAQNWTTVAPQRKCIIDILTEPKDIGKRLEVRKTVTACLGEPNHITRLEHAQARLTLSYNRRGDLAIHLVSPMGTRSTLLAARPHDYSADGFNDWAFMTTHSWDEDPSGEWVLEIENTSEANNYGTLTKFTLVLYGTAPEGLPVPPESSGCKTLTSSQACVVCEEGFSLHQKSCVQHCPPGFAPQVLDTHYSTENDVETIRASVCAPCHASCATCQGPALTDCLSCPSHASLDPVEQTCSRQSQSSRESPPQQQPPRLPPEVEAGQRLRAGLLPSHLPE

For CC(C)C[C@H](NC(=O)OCc1ccccc1Cl)C(=O)N[C@@H](C[C@@H]1CCNC1=O)C(O)S(=O)(=O)O (stereo partly drawn) [EB54], the IC50 [1] was > 100000 nM, the IC50 [2] was > 100000 nM and the EC50 ([3]; Vero 76, read-out: SARS-CoV Vero 76 EC50) was < 3000 nM. The EC50 ([3]; read-out: SARS-CoV Vero 76 EC50) was 2400 nM, the IC50 [4] was 20 nM and the IC50 [5] was > 100000 nM. For the same molecule, the IC50 [6] was > 100000 nM, the EC50 [7] was 28 nM and the “effect on replication of Influenza H1N1 (in words)” value [8] was “no effect was observed”. The EC50 ([8]; Influenza A virus, H1N1, MDCK, read-out: Influenza A (H1N1) MDCK EC50) was > 100000 nM, the CC50 [9] was > 100000 nM and the “observed inactivation rate vs compound concentration (Figure S19, replicate values)” value [10] was 0.0534 and -0.00333 and 0.0463 and 0.0575 and 0.0117 and 0.0408 and 0.0199 and 0.0198 and 0.0352 and 0.0468 and 0.0351 and 0.0076. For the same molecule, the kinact/KI ([10]; read-out: SARS-CoV-2 3CLpro kinact/KI) was 88300 M⁻¹ s⁻¹, the IC50 [11] was > 100000 nM and the IC50 [12] was 350 nM. For the same molecule, the “inhibition of SARS-CoV-2 (Figure s17b dose-response, replicate values)” value [13] was 99.8698 and 98.0961 and 101.644 and 87.6327 and 101.522 and 73.7431 and 78.1084 and 77.7143 and 78.5024 and 57.3714 and 60.2928 and 54.45 and 31.9222 and 32.9312 and 30.9133 and 24.3408 and 28.9565 and 19.7251 and 10.4228 and 9.535 and 11.3102, the EC50 [13] was 5 nM and the EC50 [14] was 1200 nM. For the same molecule, the IC50 [15] was > 100000 nM, the EC50 [16] was < 100 nM and the IC50 [17] was > 100000 nM. It also gave an EC90 [18] of 190 nM, an IC50 [19] of 52000 nM and an IC50 ([20]; Human liver, substrate 1 (Z-FR-AMC), […] Cathepsin L, read-out: IC50) of 1 nM. For the same molecule, the IC50 ([20]; Human liver, substrate 2 (MCA-PLGL-Dap(Dnp)-AR-NH2), 0.5 nM Cathepsin L, read-out: IC50) was 6 nM, the IC50 ([20]; read-out: IC50 on human cathepsin L) was 1 nM and the IC50 [21] was > 100000 nM. For the same molecule, the IC50 [22] was > 100000 nM, the IC50 ([23]; 20 nM protease, read-out: SARS-CoV-2 3CLpro IC50) was 29 nM and the “normalized activity, dose-response curve (Figure S16)” value (“normalized activity” below) ([23]; Concentration of inhibitor (nM) 0.19382) was 97.3415 and 94.0287. For the same molecule, the “normalized activity” value ([23]; Concentration of inhibitor (nM) 0.49485) was 94.642 and 94.4552, the “normalized activity” value ([23]; Concentration of inhibitor (nM) 0.79588) was 92.0244 and 86.0411 and the “normalized activity” value ([23]; Concentration of inhibitor (nM) 1.09691) was 76.1141 and 67.8169. The “normalized activity” value ([23]; Concentration of inhibitor (nM) 1.39794) was 59.5493 and 51.609, the “normalized activity” value ([23]; Concentration of inhibitor (nM) 1.69897) was 35.2953 and 26.9095 and the “normalized activity” value ([23]; Concentration of inhibitor (nM) 2.30103) was 1.552 and 1.745. The “normalized activity” value ([23]; Concentration of inhibitor (nM) 2.60206) was 1.143 and 0.9691, the “normalized activity” value ([23]; Concentration of inhibitor (nM) -0.10721) was 100.286 and 100.194 and the “normalized activity” value ([23]; Concentration of inhibitor (nM) -0.40824) was 100. The IC50 [24] was > 100000 nM, the IC50 [25] was > 100000 nM and the EC50 [26, 36] was 2000 nM. The EC50 [27] was < 100 nM and the IC50 [28] was 6 nM.

For CC(C)CC(NC(=O)OCc1ccccc1)C(=O)NC(CC1CCNC1=O)C(O)S(=O)(=O)O (stereo not drawn) [GC376, reference compound], the half-life [29] was > 1.33 h, the EC50 [7] was 146 nM and the EC50 [13] was 51 nM. The half-life [30] was > 4 h, the IC50 [31] was 0.33 nM and the solubility [32] was ≤ 1000 µM. The “concentrations at which turbidity was observed” value was 25000 to 200000 µM, the Normalized chymotrypsin activity [33] was 1.05 and 0.8698 and 0.9664 and the “Protease activity in cell lysate normalised to DMSO (Figure S22D)” value [33] was 1.05 and 0.8698 and 0.9664. For the same molecule, the EC50 ([26]; Severe acute respiratory syndrome coronavirus 2, Vero C1008, 72 h, read-out: EC50, inhibition of SARS-CoV-2 viral replication) was 6000 nM, the EC50 [26, 36] was 9000 nM and the half-life [34] was > 4 h. The half-life [35] was > 1.33 h.
